Reference: US10772326B2 (priority 2014, dated 2020)
Like-named read-outs stand apart in the source and are kept apart here.

Columns and labels:
[1] = tested on: E. coli Stratagene strain “Solopack”; assay: Disc test of essential oils on E. coli growth on LB agar; assay type: cell-based; settings: 20 μl undiluted on 6 mm disc, 24 hrs
Protocol: The essential oils cinnamadehyde (Aldrich, W228605; ≥98% purity), carvacrol (Aldrich, W224502; ≥98% purity) and geraniol (Aldrich, 163333; 98% purity) were purchased Sigma-Aldrich (St. Louis, Mo.). A single colony of E. coli Stratagene strain “Solopack” was inoculated in 5 ml of Luria Broth (LB) liquid medium with shaking at 37° C. overnight. Two hundred μl of the E. coli overnight cultures were placed on an LB agar plate, and spread evenly with glass beads. The bacterial culture was allowed to absorb into the LB medium. Within 30 min after absorption, 20 μl drops of the three essential oils (cinnamaldehyde, carvacrol or geraniol) were separately placed without dilution on 6 mm discs (Whatman, Cat No. 2017-006; GE healthcare Life Science) and the treated disks were placed on top of the plates with E. coli. The plates were then incubated for 24 hrs. […] Experiments were repeated, with the same results.

[2] = tested on: L. crescens strain BT-1 (Lcr); assay type: cell-based, Liberibacter crescens; settings: 5 days; for inhibition of the growth of Lcr: 20 μl on 6 mm disc
[3] = tested on: Swingle rootstocks and sweet orange; assay: Phytotoxicity of foliar spray or leaf painting on citrus; assay type: in vivo; settings: spray to run-off or leaf painting
Source text: To test the phytoxicity of cinnamaldehyde or carvacrol in 70% ethanol, and 70% ethanol alone on citrus plants, we applied 1% (w/v) and 10% (w/v) cinnamaldehyde or carvacrol (each dissolved in 70% ethanol) on Swingle rootstocks (˜6 inches to 1 foot tall) by spraying to the point of run-off of the spray and also sweet orange (˜3 foot tall) by painting one or both sides of a portion of the leaf surface. We also applied 70% ethanol as control in these two methods.

[4] = tested on: Swingle rootstocks; assay: Phytotoxicity of soil drench on potted citrus; assay type: in vivo; settings: drench to run-off
Source text: To further test the phytoxicity of cinnamaldehyde or carvacrol in 70% ethanol, and 70% ethanol alone on citrus plants, we applied 1% and 10% cinnamaldehyde or carvacrol (each dissolved in 70% ethanol) on Swingle rootstocks (˜6 inches to 1 foot tall) by adding sufficient liquid to soil of potted citrus to the point of run-off of the drench. We also applied 70% ethanol as control in these two methods.

[5] = tested on: Las; assay type: in vivo, Candidatus Liberibacter asiaticus; settings: 1% (w/v) in 70% ethanol, foliar spray to run-off; 1-2 weeks later and for several months; positive = Ct ≤ 35
[6] = tested on: Las; settings: spray to run-off
[7] = tested on: Las; settings: 1.5% (w/v) in 100% DMSO
[8] = 1% in 70% ethanol (carvacrol: 8 mg/ml (1%))

Cc1ccc(C(C)C)cc1O [carvacrol, reference compound]
inhibition of the growth of E. coli [1]: inhibitory
relative inhibition of the growth of E. coli (ranking) [1]: more inhibitory than cinnamaldehyde
inhibition of the growth of Lcr ([2]; 2 mg/ml in 70% ethanol): only slight inhibition
phytotoxicity, foliar ([3]; 1% (w/v) in 70% ethanol): highly phytotoxic
phytotoxicity, soil drench [4, 8]: highly phytotoxic

O=C/C=C/c1ccccc1 [cinnamaldehyde]
inhibition of the growth of E. coli [1]: inhibitory
relative inhibition of the growth of E. coli (ranking) [1]: more inhibitory than geraniol
inhibition of the growth of Lcr ([2]; 2 mg/ml in 70% ethanol): surprisingly strong inhibition
level down to which inhibitory to Lcr ([2]; two-fold serial dilutions in 70% ethanol, disc test): 1 mg/mL
phytotoxicity, foliar ([3]; 1% (w/v) in 70% ethanol): not at all phytotoxic
phytotoxicity, foliar ([3]; 10% w/v in 70% ethanol): moderately phytotoxic
phytotoxicity, soil drench [4, 8]: not at all phytotoxic
phytotoxicity, soil drench ([4]; 10% w/v in 70% ethanol): moderately phytotoxic
Las qPCR tests after treatment [5]: qPCR positive
PCR tests for presence of Las ([6]; 0.3% in 50% DMSO): remained infected
effect on the trees (defoliation) ([6]; 0.3% in 50% DMSO): appeared unaffected
weekly qPCR tests for Las for the next nine months ([6]; 1.5% in 50% DMSO): remained completely negative
effect on the trees (defoliation) ([6]; 1.5% in 50% DMSO, 6-7 days later): completely defoliated
PCR tests for presence of Las in new shoots ([6]; 1.5% in 50% DMSO, about 3 weeks after defoliation): completely Las negative
effect on the trees (defoliation) ([7]; 2 x 20 ml trunk injection, 6-7 days later): completely defoliated
PCR tests for presence of Las in new shoots ([7]; trunk injection): completely negative
weekly PCR tests for Las for the next 9 months ([7]; trunk injection): remained completely PCR negative

CC(C)=CCC/C(C)=C/CO [geraniol, reference compound]
inhibition of the growth of E. coli [1]: inhibitory
inhibition of the growth of Lcr ([2]; 2 mg/ml to 0.125 mg/ml in 70% ethanol): not inhibitory
